The source of these data is patent US20080214606A1, “Methods for the Identification and Use of Compounds Suitable for the Treatment of Drug Resistant Cancer Cells” (The Government of the United States of America as …, priority 2004, published 2008).

The target in the series is ABCB1 (Homo sapiens, UniProt P08183). The series can be described thus: Correlation of ABCB1 expression with drug sensitivity across the NCI-60. The protocol:
Expression levels are measured by real-time quantitative RT-PCR using the LightCycler RNA Amplification SYBR Green kit and a LightCycler machine (Roche Biochemicals, Indianapolis, Ind.). Specific oligonucleotide probes are designed for each of the ABC transporters using DNAStar Primer Select (DNASTAR Inc.), and they may be synthesized at Lofstrand Laboratories (Gaithersburg, Md.). When possible, the amplicons are designed to encompass exon-intron boundaries to avoid amplification of genomic DNA. Since the Syber Green assay detects accumulation of double stranded DNA, primers are selected (from a battery consisting of about 200 primers) that amplified a single product of the correct size.
RT-PCR is carried out on 150 ng total RNA, in the presence of 250 nM specific primers. Following reverse transcription (20 min at 50° C.), the PCR reaction consists of 45 cycles of denaturation (15 sec at 95° C.), annealing (30 sec at 58° C.), and elongation (30 sec at 72° C.). No-template (water) reaction mixtures are prepared as negative controls.
During PCR amplification, fluorescence emission is measured and recorded in real time by the LightCycler. Crossing point values are calculated, using the LightCycler software package, by the Fit Points analysis method, with baseline fluorescence set at 1. The SyberGreen assay measures accumulation of double-stranded products, and the appearance of primer dimers limits quantitation at high cycle numbers. […] The raw results are expressed as number of cycles to reach the crossing point. If the desired product is not detected, the corresponding value is adjusted to crossing points indicating no expression. To assess the contribution of experimental artifacts, selected cell lines are assessed in replicate.
Both sets are available at http://discover.nci.nih.gov. The two are combined to form a joint dataset that includes 1429 compounds.
To determine quantitatively how well the 47 genes cluster the cell lines by their tissues of origin, a statistical method is employed wherein the kappa statistic is used to indicate how well the observed clusters correspond to the nine tissue-of-origin classifications. […] To control the overall false type 1 error rate, both a step-down procedure (Westfall and Young, 1993, Resampling-Based Multiple Testing: Examples and Methods for p-value Adjustment (New York: Wiley)) and a step-up procedure (Reiner et al., 2003, Bioinformatics 19:368-375) were employed to adjust for multiple testing of all 47 genes simultaneously. In the Benjamini-Hochberg procedure the p-values are computed in the standard way by permutation, assuming that all distributions are exchangeable: the number of values in the permuted data with correlations over a threshold, divided by the number of compounds and by the number of permutations. In this analysis, the False Discovery Rate (q-value) at which each compound would be declared was calculated using the step-up procedure for positively correlated test statistics (again true because all correlations being compared are computed against the same ABC gene): in this procedure the first q-value for the largest correlation is the Bonferroni-corrected p-value for that gene; then further q-values are calculated as qj=max(pj*1429/j, qj-1). This procedure limits the expected proportion of false positives in the list 1, . . . , j to at most qj.

Each structure is given as a SMILES string.

Sequence of ABCB1 (P08183 whole entry): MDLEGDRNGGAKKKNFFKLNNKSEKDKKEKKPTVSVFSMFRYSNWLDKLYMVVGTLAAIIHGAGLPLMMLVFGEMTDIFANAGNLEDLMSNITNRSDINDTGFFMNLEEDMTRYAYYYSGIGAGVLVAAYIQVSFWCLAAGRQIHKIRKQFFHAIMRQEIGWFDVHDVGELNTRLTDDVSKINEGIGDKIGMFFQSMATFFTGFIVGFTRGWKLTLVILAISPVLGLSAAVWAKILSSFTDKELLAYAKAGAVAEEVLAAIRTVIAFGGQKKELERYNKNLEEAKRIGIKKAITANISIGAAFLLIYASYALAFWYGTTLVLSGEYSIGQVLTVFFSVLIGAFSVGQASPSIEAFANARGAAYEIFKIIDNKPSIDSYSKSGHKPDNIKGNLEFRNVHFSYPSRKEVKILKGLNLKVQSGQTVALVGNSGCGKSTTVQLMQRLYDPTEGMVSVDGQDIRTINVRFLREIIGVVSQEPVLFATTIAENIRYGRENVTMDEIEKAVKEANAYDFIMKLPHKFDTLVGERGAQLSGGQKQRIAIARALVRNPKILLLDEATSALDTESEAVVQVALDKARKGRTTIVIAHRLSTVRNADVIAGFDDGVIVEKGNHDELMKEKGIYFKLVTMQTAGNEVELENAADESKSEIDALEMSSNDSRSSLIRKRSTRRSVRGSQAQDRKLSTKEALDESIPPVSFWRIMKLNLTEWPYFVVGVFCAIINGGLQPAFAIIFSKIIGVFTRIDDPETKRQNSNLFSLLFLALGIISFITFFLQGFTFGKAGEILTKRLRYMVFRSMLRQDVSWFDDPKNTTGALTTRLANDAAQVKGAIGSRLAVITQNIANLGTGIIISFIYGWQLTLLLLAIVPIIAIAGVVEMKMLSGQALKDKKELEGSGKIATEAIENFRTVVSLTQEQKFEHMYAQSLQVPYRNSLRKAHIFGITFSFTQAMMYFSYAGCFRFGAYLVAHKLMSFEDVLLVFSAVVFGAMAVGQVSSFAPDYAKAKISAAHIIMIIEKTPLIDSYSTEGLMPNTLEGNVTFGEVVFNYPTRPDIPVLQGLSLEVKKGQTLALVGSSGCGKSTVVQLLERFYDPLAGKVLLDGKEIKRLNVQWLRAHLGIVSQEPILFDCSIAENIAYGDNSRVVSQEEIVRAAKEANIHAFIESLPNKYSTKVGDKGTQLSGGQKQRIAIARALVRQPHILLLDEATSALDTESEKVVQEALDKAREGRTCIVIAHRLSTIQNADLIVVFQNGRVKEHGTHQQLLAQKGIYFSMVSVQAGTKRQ

Consider `Oc1ccc2ccccc2c1-c1nnc(CCCCCCCCc2nnc(-c3c(O)ccc4ccccc34)o2)o1` [NSC697189], for which the “Pearson's Correlation Coeff” value was 0.2621.

Turning to `C=C(C)[C@@H]1CCc2c(O)c(O)c(=O)cc(C)c2C1` [NSC 310618], the “Correlation of antiproliferative activity with ABCB1 expression” value (shortened to “Correlation … with ABCB1 expression”) came out at 0.3698.

As to `N#Cc1c(Nc2ccccc2)[n+]([O-])c2ccc(Cl)cc2[n+]1[O-]` [NSC693869], the “Pearson's Correlation Coeff” value is 0.2805. Consider `Cc1c(-c2ccc(-c3ccccc3F)cc2)nc2ccc(F)cc2c1C(=O)O` [NSC368390], for which the “Pearson's Correlation Coeff” value came to 0.2331. With `O=S1(=O)CCC2=CC(C(F)(F)F)=CC(C(F)(F)F)=CN21` [NSC605440], the “Pearson's Correlation Coeff” value worked out at 0.2658.

For `CCOC(=O)NC1CC2CCC1(OC)C=C2C` (stereo not shown) [NSC 617278], the “Correlation … with ABCB1 expression” value is listed as 0.424. `CC(C)(C)N1CC1CNC(=O)C(=O)NCC1CN1C(C)(C)C` (stereo not shown) [NSC298276]: the “Pearson's Correlation Coeff” value is reported as 0.3398. Compound `CCC(C)SC1SCC2C(=O)N(C)C3(CC3C)C(=O)OCC(NC(=O)c3nc4ccccc4cc3O)C(=O)NC(C)C(=O)N(C)C1C(=O)N(C)C1(CC1C)C(=O)OCC(NC(=O)c1nc3ccccc3cc1O)C(=O)NC(C)C(=O)N2C` (stereo not shown) [NSC 630678] came in with a Correlation of −0.7029. In the case of `CC(C)=CCC[C@@H](C)C1=C(Nc2ccccc2F)C(=O)C(C)=C(O)C1=O` [NSC697131], the “Correlation … with ABCB1 expression” value was found to be 0.3522 and the “Pearson's Correlation Coeff” value is listed as 0.3514. Take `c1ccc(/C(=N/Nc2ccccn2)c2cccnn2)cc1` [NSC693623]: the “Pearson's Correlation Coeff” value was 0.2952. On to `CC(/C=N/NC(=S)N1CCCCC1)=N/NC(=S)N1CCCCC1` [NSC 693326], for which the “Correlation … with ABCB1 expression” value came to 0.3892.

Regarding `CC(C)=CCC[C@@H](C)c1c2[nH]c3ccccc3sc-2c(C)c(=O)c1=O` [NSC697130], the “Correlation … with ABCB1 expression” value stood at 0.3925 and the “Pearson's Correlation Coeff” value turned out to be 0.4582. Regarding `Cc1cc(C)c(C2=NO[C@@H]3[C@H]2C(=O)C=C2N(Cc4ccccc4)CCO[C@@]23O)c(C)c1` [NSC 627025], the “Correlation … with ABCB1 expression” value is given as 0.3511. For `Cc1cc(C(=O)NCCN(C)C)c2nc3ccccc3cc2c1.Cl` [NSC 617961], the “Correlation … with ABCB1 expression” value is 0.423. On to `COc1ccc(-c2oc3cc(O)c(OC)c(O)c3c(=O)c2O)cc1` [NSC641548], for which the “Pearson's Correlation Coeff” value came out at 0.2632. Turning to `COc1ccc2nc3c(C(=O)NCCN(C)C)cccc3cc2c1.Cl` [NSC 617959], the “Correlation … with ABCB1 expression” value was 0.3586. In the case of `O=C1c2ccccc2C(=O)c2c1nc1ccccc1c2-c1cncc(-c2c3c(nc4ccccc24)C(=O)c2ccccc2C3=O)c1` [NSC694490], the “Pearson's Correlation Coeff” value worked out at 0.2438. Still for that read-out and setting: for `O=c1cc(-c2cccc(OCc3ccccc3)c2)[nH]c2cc3c(cc12)OCO3` [NSC657279] the value was 0.2253; for `NC(=O)NO` [NSC32065], 0.3336; for `CCc1c(CNc2ccc(C(=O)NC(CC(=O)O)C(=O)O)cc2)ccc2nc(N)nc(N)c12` (stereo not shown) [NSC184692], 0.2971. Consider `CCc1nc(N)nc(N)c1-c1ccc(NCCc2ccccc2)c([N+](=O)[O-])c1` [NSC382049], for which the “Pearson's Correlation Coeff” value was determined as 0.3279. In the case of `CN(C)c1nc(N(C)C)nc(N(C)C)n1` [NSC 13875], the “Correlation … with ABCB1 expression” value came to 0.4856. For the compound `CCc1nc(N)nc(N)c1-c1ccc(Cl)c(N=[N+]=[N-])c1` [NSC319947], the “Pearson's Correlation Coeff” value turned out to be 0.3098. Regarding `CC(C)=CCC[C@@H](C)c1c2ncc[nH]c-2c(C)c(=O)c1O` [NSC697135], the “Correlation … with ABCB1 expression” value is given as 0.4249 and the “Pearson's Correlation Coeff” value came out at 0.4052. As for `O=C1CSc2sc(=S)sc2S1` [NSC 627451], the “Correlation … with ABCB1 expression” value is 0.3894. Turning to `CCCCc1[nH]ccc2c(C)c3nc4ccccc4c3cc12` [NSC142055], the “Pearson's Correlation Coeff” value is on record as 0.3935.

As for `Cc1ccc(C2COc3cc(O)c(O)cc3C2)cc1` (stereo not shown) [NSC600286], the “Pearson's Correlation Coeff” value came out at 0.2177. For the compound `NC(=S)NN=Cc1ncccc1O` [NSC95678], the “Pearson's Correlation Coeff” value was 0.2475. As to `COc1ccc(C2COc3cc(O)c(O)cc3C2)cc1` (stereo not shown) [NSC600285], the “Pearson's Correlation Coeff” value came out at 0.2935.

On to `CC(C)OC(=S)Nc1ccc(Cl)c(/C=N/OC(C)(C)C)c1` [NSC 645542], for which the “Correlation … with ABCB1 expression” value is given as 0.3924.

As for `c1cc2n(n1)CCN2` [NSC51143], the “Pearson's Correlation Coeff” value is reported as 0.4328.

With `Cc1c2cnccc2c(C)c2c1c1ccccc1n2CCOC(=O)c1ccccc1` [NSC163443], the “Pearson's Correlation Coeff” value is given as 0.2891. On to `C=C1C(=O)O[C@H]2[C@H]1[C@@H](OC(=O)C=C(C)C)CC1=C[C@@H](C[C@@]3(C)O[C@@H]23)OC1=O` [NSC102817], for which the “Pearson's Correlation Coeff” value amounted to 0.2813. Consider `C=C(C)C(=O)O[C@H]1CC2=C[C@@H](C[C@@]3(C)O[C@@H]3[C@H]3OC(=O)C(=C)[C@@H]31)OC2=O` [NSC100046], for which the “Pearson's Correlation Coeff” value was found to be 0.2949.

Take `CNC1=C(C)C(=O)C(O)=C([C@H](C)CCC=C(C)C)C1=O` [NSC697128]: the “Correlation … with ABCB1 expression” value worked out at 0.4349 and the “Pearson's Correlation Coeff” value was 0.4568. As to `CN(C)CCNc1ccc2nnn3c4ccc(Cl)cc4c(=O)c1c23` [NSC645818], the “Pearson's Correlation Coeff” value is listed as 0.3377. In the case of `CSc1sc(=S)sc1SC` [NSC 627450], the “Correlation … with ABCB1 expression” value came out at 0.4454. As to `O=C([O-])c1ccc(C(=O)[O-])c(C(=O)[O-])c1.[H+].[NH-]C1CCCCC1[NH-].[Pt+4]` [NSC271674], the “Pearson's Correlation Coeff” value is 0.2678. In the case of `COC1=C2C[C@@H](C)C[C@H](OC)[C@H](O)[C@@H](C)/C=C(\C)[C@H](OC(N)=O)[C@@H](OC)/C=C\C=C(/C)C(=O)NC(=CC1=O)C2=O` [geldamycin, reference compound], the “Relationship between drug sensitivity and ABCB1 expression (in words)” value is “striking inverse correlations”.

As for `CCc1nc(N)nc(N)c1-c1ccc(N(C)Cc2ccccc2)c([N+](=O)[O-])c1` [NSC382035], the “Pearson's Correlation Coeff” value worked out at 0.3180.

Consider `Cc1ccc(S(=O)(=O)O)cc1.N/C(=N\N=C/c1cc(Br)cc(Br)c1O)NO` [NSC 371168], for which the “Correlation … with ABCB1 expression” value was determined as 0.3643. In the case of `CN(C)c1ccc(/C=C2\C[N+](C)(C)C/C(=C\c3ccc(N(C)C)cc3)C2=O)cc1.[I-]` [NSC 618757], the Correlation is recorded as −0.6081. Consider `Nc1ccn([C@@H]2C=C(CO)[C@@H](O)[C@H]2O)c(=O)n1` [NSC375575], for which the “Pearson's Correlation Coeff” value is on record as 0.2400.

Consider `CC(C)=CCC[C@@H](C)C1=C(N)C(=O)C(C)=C(O)C1=O` [NSC 697124], for which the “Correlation … with ABCB1 expression” value is listed as 0.4636. Consider `COc1ccc(C(=O)c2cc(OC)c(OC)c(OC)c2)cc1` [NSC638498], for which the “Pearson's Correlation Coeff” value is recorded as 0.2464. Take `Nc1nc(N)c2cc(CNc3ccc(C(=O)NC(CC(=O)O)C(=O)O)c(Cl)c3)ccc2n1` (stereo not shown) [NSC134033]: the “Pearson's Correlation Coeff” value is 0.2800. For the compound `CC(C)=CCC[C@@H](C)C1=C(O)C(=O)C(C)=C(NC(C)c2ccccc2)C1=O` (stereo partly shown) [NSC697137], the “Correlation … with ABCB1 expression” value was found to be 0.4295 and the “Pearson's Correlation Coeff” value is 0.3828. As for `COc1cc([C@@H]2c3[nH]c4ccccc4c3C[C@H]3COC(=O)N32)cc(OC)c1O` [NSC640737], the “Pearson's Correlation Coeff” value was found to be 0.2176. For the compound `Cc1c(CNc2ccc(Cl)c(C(=O)NC(CC(=O)O)C(=O)O)c2)ccc2nc(N)nc(N)c12` (stereo not shown) [NSC132483], the “Pearson's Correlation Coeff” value was 0.3151.

For the compound `CCc1nc(N)nc(N)c1-c1ccc(NC)c([N+](=O)[O-])c1` [NSC382034], the “Pearson's Correlation Coeff” value was 0.3302. On to `O=C(/C=C/c1ccccc1)CSc1nc2ccc(I)cc2c(=O)n1Cc1ccccc1` [NSC 715729], for which the “Correlation … with ABCB1 expression” value came to 0.3544. Regarding `CCc1nc(N)nc(N)c1-c1ccc(Cl)c(N=NN(C)C)c1` [NSC330465], the “Pearson's Correlation Coeff” value is 0.2872. For the compound `O=c1[nH]cc(F)c(=O)[nH]1` [5-fluorouracil, reference compound], the “Relationship between drug sensitivity and ABCB1 expression (in words)” value was “non-correlated or positively correlated”.
